Where two headings read alike, the source gives them in different places. Numbered stars: 1 amine (or outer) side, 2 acyl side, 3 side chain; on linkers, the order of the positions; unused ones are H or OH. Bridge positions count the residues as written; N and C are the ends. Square brackets hold non-standard residues; d marks the D form. Peptide text beside a SMILES is read from it. * marks the point of attachment. C20 diacid = O=C(O)CCCCCCCCCCCCCCCCCCC(=O)*; γGlu = O=C(O)[C@H](CCC(=O)[*:2])N[*:1]; Hyp = O=C(O)[C@@H]1C[C@@H](O)CN1
How the values were obtained:
hAMY3 receptor = target: T1, hAMY3 receptor (Homo sapiens, UniProt O60896+P30988); assay: cAMP assay for in vitro receptor activation, hAMY3-R; assay type: cell-based
T1 sequence (P30988 25-474): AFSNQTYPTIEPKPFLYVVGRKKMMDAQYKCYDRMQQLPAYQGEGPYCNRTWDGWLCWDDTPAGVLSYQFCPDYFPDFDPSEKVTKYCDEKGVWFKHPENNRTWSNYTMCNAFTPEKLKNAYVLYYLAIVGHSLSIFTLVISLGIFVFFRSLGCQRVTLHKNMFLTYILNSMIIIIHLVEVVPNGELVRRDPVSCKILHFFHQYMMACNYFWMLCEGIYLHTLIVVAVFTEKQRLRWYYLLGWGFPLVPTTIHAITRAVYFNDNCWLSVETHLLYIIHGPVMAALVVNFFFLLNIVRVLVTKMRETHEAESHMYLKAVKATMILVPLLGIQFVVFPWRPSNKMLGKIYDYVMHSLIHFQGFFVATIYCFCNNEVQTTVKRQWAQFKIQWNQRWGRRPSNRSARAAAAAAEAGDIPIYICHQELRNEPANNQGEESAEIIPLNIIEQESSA
T1 sequence (O60896 24-148 partner): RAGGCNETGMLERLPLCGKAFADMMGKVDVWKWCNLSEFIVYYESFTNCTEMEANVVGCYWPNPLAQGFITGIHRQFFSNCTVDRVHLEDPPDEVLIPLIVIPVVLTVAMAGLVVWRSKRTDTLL
Method in brief: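 Accumulated cAMP was detected by time-resolved FRET one hour after reagent addition. Beforehand, hAMY3-R-overexpressing monoclonal cells (2000/well, DPBS, 0.05% casein, 0.5 mM IBMX) received graded doses of compound for 30 min at room temperature; human amylin served as positive control.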

hAM1 receptor = hAM1 receptor (Homo sapiens, UniProt O60895+Q16602); assay: cAMP assay for in vitro receptor activation, hAM1-R; assay type: cell-based
Method in brief: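 A subcloned monoclonal line stably expressing hAM1 receptor is thawed and plated at 8000 cells/well. The assay buffer is DPBS with 0.05% casein and 0.5 mM IBMX, and receptor activation is followed by cAMP levels.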

[1] = Acute food intake study in lean rats; assay type: in vivo, rat; conditions: single SC injection, lean healthy rats; for Average cumulative food intake: up to 48 h, P < 0.001 vs vehicle
Procedure: General Protocols for Acute Food Intake Study
The effect on cumulative food intake was measured in male Sprague Dawley rats (6 weeks of age, Taconic, Denmark) following a single dose using a fully automated food intake monitoring system (HM-2; MBRose ApS, Faaborg, Denmark), allowing for advanced synchronous real-time monitoring of food intake behaviour of individual animals. The animals were housed in groups of 4 in a light-, temperature-, and humidity-controlled room (a 12/12 LD cycle, lights on at 02:00 AM; 22±2° C.; 50% relative humidity). The mice had ad libitum access to regular chow diet (Altromin 1324, Brogaarden A/S, Lynge, Denmark) and domestic quality tap water. Mice arrived at day 7, and a minimum of 5 days of habituation to the system was allowed prior to beginning of the study. During these days, the animals were handled daily to accustom them to the experimental paradigm. On the day of dosing, the animals were randomized into groups according to body weight. Animals were fasted for four hours prior to dosing. Animals were dosed SC 30 or 180 min prior to lights out, and food intake data were collected automatically for a total of 48 h post-dosing with automatic food recordings every 5 min.

[2] = Chronic diet-induced obesity (DIO) study in rats; assay type: in vivo, rat; conditions: for Average body weight day 28 (gram): P < 0.001 vs vehicle
From the text: General Protocols for Chronic Diet-Induced Obesity (DIO) Study
Sprague-Dawley rats (Taconic, Denmark) arrived at the age of 5 weeks. After one week of acclimation, they were evenly grouped based on their baseline body weight and offered ad libitum access a two-choice diet consisting of chow pellet (Altromin #1324, Brogaarden, Lynge, Denmark) and a high palatable high sugar/fat diet (1:1:1 mixture of Nutella (Ferrero, Alba, Italy), peanut butter (PCD, Rotterdam, Netherlands) and powdered standard chow (Altromin #1324, Brogaarden, Lynge, Denmark); 29.3% fat, 33.2% carbohydrate, and 18% protein) for up to 36 weeks. The rats were pair-housed throughout the study under controlled environmental conditions (12-hour light/dark cycle, lights off at 15:00; 22±1° C.; 50±10% relative humidity). Body weight, food and water intake were monitored daily during the entire period of the study. One day before the experiment, the rats were randomized according to body weight into experimental groups (n=9-10), which received compound or vehicle SC. QD (once daily) for 28 days.

[3] = Physical stability of peptide analogues (Thioflavin T fibrillation); assay type: physicochemical; conditions: maximum ThT signal normalized between hAMY maximum and buffer background; 40° C., shaking, four days; pH 7 per table title
Method in brief: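 1 h in 50 mM NaOAc pH 4 / 50 mM NaPi pH 7; + ThT 4 μM final; 40 °C, 700 rpm linear shake 5 min pre-read; ex 450, em 480 nm q10 min × 4 d; LOESS smoothing; max signal normalised to hAMY max vs buffer blank.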

[4] = 10 nmol/kg SC once daily for 28 days
[5] = cAMP assay, hAMY3 receptor, read-out: hAMY3R EC50
[6] = 1 nmol/kg SC once daily for 28 days
[7] = 3 nmol/kg SC once daily for 28 days

Chain of hAM1 receptor (Q16602 23-461): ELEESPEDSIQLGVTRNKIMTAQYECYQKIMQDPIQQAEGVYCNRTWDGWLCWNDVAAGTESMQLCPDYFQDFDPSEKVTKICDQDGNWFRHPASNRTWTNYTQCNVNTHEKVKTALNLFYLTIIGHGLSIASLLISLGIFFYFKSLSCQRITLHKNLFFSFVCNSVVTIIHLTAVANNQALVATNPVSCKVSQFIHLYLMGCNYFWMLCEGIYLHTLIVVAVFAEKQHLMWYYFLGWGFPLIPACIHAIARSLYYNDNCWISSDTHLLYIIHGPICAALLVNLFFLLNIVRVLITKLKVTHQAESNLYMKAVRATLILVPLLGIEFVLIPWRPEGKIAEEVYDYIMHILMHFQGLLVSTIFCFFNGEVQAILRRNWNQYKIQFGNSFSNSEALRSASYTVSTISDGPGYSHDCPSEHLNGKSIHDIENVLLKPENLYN
Chain of hAM1 receptor (O60895 43-175 partner): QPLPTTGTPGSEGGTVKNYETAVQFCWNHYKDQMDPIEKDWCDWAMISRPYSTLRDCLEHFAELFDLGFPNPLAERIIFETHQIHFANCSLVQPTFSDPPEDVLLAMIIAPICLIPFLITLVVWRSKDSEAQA

SMILES | EC50 (hAMY3 receptor) [nM] | EC50 (hAM1 receptor) [µM] | cumulative food intake, % to vehicle ([1]; 10 nmol/kg) [%] | Average cumulative food intake ([1]; 10 nmol/kg) [g] | body weight day 28, % to vehicle [2, 4] [%] | Average body weight day 28 (gram) [2, 4] [gram] | EC50 (hAMY3 receptor; [5]) [nM] | Max ThT signal (%) [3] [%] | cumulative food intake, % to vehicle ([1]; 30 nmol/kg) [%] | Average cumulative food intake ([1]; 30 nmol/kg) [g] | body weight day 28, % to vehicle [2, 6] [%] | Average body weight day 28 (gram) [2, 6] [gram] | body weight day 28, % to vehicle [2, 7] [%] | Average body weight day 28 (gram) [2, 7] [gram] | EC50 (hAM1 receptor; cAMP assay, hAM1 receptor, read-out: hAM1R EC50) [µM]
CC[C@H](C)[C@H](NC(=O)[C@H](CCC(N)=O)NC(=O)[C@H](CCC(=O)O)NC(=O)[C@H](C)NC(=O)[C@H](CC(C)C)NC(=O)[C@H](CCCNC(=N)N)NC(=O)[C@H](CCC(N)=O)NC(=O)[C@@H](NC(=O)[C@@H](NC(=O)[C@@H]1CSSC[C@H](NC(=O)[C@H](CCCCN)NC(=O)CC[C@H](NC(=O)CCCCCCCCCCCCCCCCCCC(=O)O)C(=O)O)C(=O)N[C@@H](CC(N)=O)C(=O)N[C@@H]([C@@H](C)O)C(=O)N[C@@H](C)C(=O)N[C@@H]([C@@H](C)O)C(=O)N1)[C@@H](C)O)C(C)C)C(=O)N[C@@H](C)C(=O)N[C@@H](CCC(N)=O)C(=O)N[C@@H](Cc1ccccc1)C(=O)N[C@H](C(=O)N[C@@H](CC(=O)O)C(=O)N[C@@H](CCCCN)C(=O)N[C@@H](CC(=O)O)C(=O)N[C@@H](CCCCN)C(=O)N[C@@H](CC(=O)O)C(=O)N[C@@H](CC(N)=O)C(=O)N[C@H](C(=O)N[C@@H](C)C(=O)N1CCC[C@H]1C(=O)N1CCC[C@H]1C(=O)N[C@H](C(=O)N[C@@H](CC(N)=O)C(=O)N[C@H](C(=O)NCC(=O)N[C@@H](CO)C(=O)N[C@@H](CC(N)=O)C(=O)NCC(=O)N1C[C@H](O)C[C@H]1C(N)=O)C(C)C)[C@@H](C)O)C(C)C)[C@@H](C)O [compound 78] ({C20 diacid-γGlu}-KCNTATCTVQRLAEQIAQFTDKDKDNVAPPTNVGSNG[Hyp]-NH2; disulfide 2-7) | 0.014 | > 5 | 33.66 | 13.7 | 88.53 | 687 | – | – | – | – | – | – | – | – | –
CC[C@H](C)[C@H](NC(=O)[C@H](CC(N)=O)NC(=O)[C@@H](NC(=O)[C@H](CCCNC(=N)N)NC(=O)[C@@H]1CCCN1C(=O)[C@H](C)NC(=O)[C@@H](NC(=O)[C@H](CC(N)=O)NC(=O)[C@H](CC(=O)O)NC(=O)[C@H](CCCCN)NC(=O)[C@H](CC(=O)O)NC(=O)[C@H](CCCCN)NC(=O)[C@H](CC(=O)O)NC(=O)[C@@H](NC(=O)[C@H](Cc1ccccc1)NC(=O)[C@H](CCC(N)=O)NC(=O)[C@H](Cc1ccc(O)cc1)NC(=O)[C@@H](NC(=O)[C@H](CCC(N)=O)NC(=O)[C@H](Cc1c[nH]cn1)NC(=O)[C@H](C)NC(=O)[C@H](CC(C)C)NC(=O)[C@H](CCCNC(=N)N)NC(=O)[C@H](CCC(N)=O)NC(=O)[C@@H](NC(=O)[C@@H](NC(=O)[C@@H]1CSSC[C@H](NC(=O)CN)C(=O)N[C@@H](CCCNC(=N)N)C(=O)N[C@@H](Cc2ccccc2)C(=O)NCC(=O)N[C@@H]([C@@H](C)O)C(=O)N1)[C@@H](C)O)C(C)C)[C@@H](C)CC)[C@@H](C)O)C(C)C)[C@@H](C)O)C(=O)NCC(=O)N1CCC[C@H]1C(=O)N[C@@H](CCC(N)=O)C(=O)NCC(=O)N1C[C@H](O)C[C@H]1C(N)=O [compound 46] (H-GCRFGTCTVQRLAHQIYQFTDKDKDNVAPRTNIGPQG[Hyp]-NH2; disulfide 2-7; N-terminus assumed) | – | – | 52.48 | 23.3 | 86.31 | 618 | 0.011 | 5.800 | 24.10 | 10.7 | 94.13 | 674 | 86.59 | 620 | –
CC[C@H](C)[C@H](NC(=O)[C@H](CCC(N)=O)NC(=O)[C@H](Cc1c[nH]cn1)NC(=O)[C@H](C)NC(=O)[C@H](CC(C)C)NC(=O)[C@H](CCCNC(=N)N)NC(=O)[C@H](CCC(N)=O)NC(=O)[C@@H](NC(=O)[C@@H](NC(=O)[C@@H]1CSSC[C@H](NC(=O)[C@H](CCCCN)NC(=O)CC[C@H](NC(=O)CCCCCCCCCCCCCCCCCCC(=O)O)C(=O)O)C(=O)N[C@@H](CC(N)=O)C(=O)N[C@@H]([C@@H](C)O)C(=O)N[C@@H](C)C(=O)N[C@@H]([C@@H](C)O)C(=O)N1)[C@@H](C)O)C(C)C)C(=O)N[C@@H](Cc1ccc(O)cc1)C(=O)N[C@@H](CCC(N)=O)C(=O)N[C@@H](Cc1ccccc1)C(=O)N[C@H](C(=O)N[C@@H](CC(=O)O)C(=O)N[C@@H](CCCCN)C(=O)N[C@@H](CC(=O)O)C(=O)N[C@@H](CCCCN)C(=O)N[C@@H](CC(=O)O)C(=O)N[C@@H](CC(N)=O)C(=O)N[C@H](C(=O)N[C@@H](C)C(=O)N1CCC[C@H]1C(=O)N1CCC[C@H]1C(=O)N[C@H](C(=O)N[C@@H](CCCCN)C(=O)N[C@H](C(=O)NCC(=O)N[C@@H](CO)C(=O)N[C@@H](CC(N)=O)C(=O)NCC(=O)N1C[C@H](O)C[C@H]1C(N)=O)C(C)C)[C@@H](C)O)C(C)C)[C@@H](C)O [compound 60] ({C20 diacid-γGlu}-KCNTATCTVQRLAHQIYQFTDKDKDNVAPPTKVGSNG[Hyp]-NH2; disulfide 2-7) | – | – | 69.59 | 30.9 | – | – | 0.012 | – | 45.72 | 20.3 | – | – | – | – | > 5
